Data published in patent US9284595B2 (priority 2012, dated 2016).

Columns and labels:
BoNT/A-LC [1] = biological target: T1, BoNT/A-LC (Clostridium botulinum, UniProt P0DPI0); type: biochemical
BoNT/A-LC [2] = biological target: T1, BoNT/A-LC; type: biochemical; remark: listed apart in the source
BoNT/A Toxoid = BoNT/A Toxoid (Clostridium botulinum, UniProt P0DPI0)
[3] = biological target: heat inactivated BoNT/A-LC (Clostridium botulinum, UniProt P0DPI0)
BoNT/A Holotoxin = BoNT/A Holotoxin (Clostridium botulinum, UniProt P0DPI0); type: biochemical
Chain of BoNT/A Holotoxin (P0DPI0 2-448 limits assumed): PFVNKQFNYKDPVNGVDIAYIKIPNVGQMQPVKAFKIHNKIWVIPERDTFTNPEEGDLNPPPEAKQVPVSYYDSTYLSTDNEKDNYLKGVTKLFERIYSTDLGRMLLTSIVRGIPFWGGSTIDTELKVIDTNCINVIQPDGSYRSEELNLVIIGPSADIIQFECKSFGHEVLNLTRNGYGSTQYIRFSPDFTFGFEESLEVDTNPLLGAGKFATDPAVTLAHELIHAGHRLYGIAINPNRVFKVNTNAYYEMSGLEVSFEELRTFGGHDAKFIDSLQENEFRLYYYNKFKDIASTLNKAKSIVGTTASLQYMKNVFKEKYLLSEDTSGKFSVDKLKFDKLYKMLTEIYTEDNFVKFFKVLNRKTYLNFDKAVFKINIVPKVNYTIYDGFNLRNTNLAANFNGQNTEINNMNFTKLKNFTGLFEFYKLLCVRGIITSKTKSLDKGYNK

T1 sequence (P0DPI0 2-448 limits assumed): as above
Chain of heat inactivated BoNT/A-LC (P0DPI0 2-448 limits assumed): as above
Chain of BoNT/A Toxoid (P0DPI0 2-448 limits assumed): as above

In the case of O[C@H](CS)[C@H](O)CS (racemic) [DTT, Dithiothreitol], the “effect on BoNT/A-LC activity” value (BoNT/A-LC [1]) is reported as “reduced BoNT/A-LC activity”.

“MDENLEQVSGIIGNLRHMALDMGNEIDTQNRQIDRIMEKADSN(KDabcyl)TRIDEANQRATKML(K5Fam) [SEQ. ID NO. 1]” was tested, and the “detection of BoNT/A-LC activity” value (BoNT/A-LC [2]) was “able to detect BoNT/A-LC”, the “detection of BoNT/A-LC activity in the presence of common PCR inhibitors” value (BoNT/A-LC [2]) was “can detect BoNT/A-LC activity in the presence of common PCR inhibitors” and the “detection of biologically active BoNT/A-LC” value (BoNT/A-LC [2]) was “able to detect biologically active BoNT/A-LC”. For the same compound, the “fluorescence response to BoNT/A-LC” value (BoNT/A-LC [2]) was “able to detect biologically active BoNT/A-LC”, the “increase in fluorescence overtime compared to SNAPtide” value (BoNT/A-LC [2]) was “greater increase in fluorescence overtime” and the “limit of detection of BoNT/A-LC” value (BoNT/A-LC [2]) was “at least 0.04 ng”. The “detection of BoNT/A Toxoid” value (BoNT/A Toxoid) was “not BoNT/A Toxoid, even when present at high concentrations” and the “detection of heat inactivated BoNT/A-LC” value [3] was “not heat inactivated BoNT/A-LC, even when present at high concentrations”.

“(KDabcyl)TRIDEANQRATKML(K5Fam) [SEQ. ID NO. 6]” was tested, and the “detection of BoNT/A-LC activity” value (BoNT/A-LC [2]) was “incapable of detecting BoNT/A-LC activity”.

For O=C(O)CCP(CCC(=O)O)CCC(=O)O [TCEP, tris(2-carboxyethyl)phosphine, reference compound], the “performance of reducing agent in BoNT/A-LC assay” value (BoNT/A-LC [2]) was “performed better than samples with DTT (and zinc), and even better than samples containing no reducing agent” and the “performance of TCEP concentration in BoNT/A Holotoxin assay” value (BoNT/A Holotoxin) was “samples with 1.0 mM TCEP performed better than samples with 2.0 mM TCEP”.
